Test results as given in ChEMBL document CHEMBL3600337, “Chemoenzymatic synthesis and cytotoxicity of oenanthotoxin and analogues” (Bioorg Med Chem, 2015).

Legend:
[1] = Cytotoxicity against human 518A2 cells after 96 hrs by sulforhodamine B assay; type: functional, cell-based; conditions: 518A2, 96 h
8505C = assay: Cytotoxicity against human 8505C cells after 96 hrs by sulforhodamine B assay; type: functional, cell-based
A2780 = assay: Cytotoxicity against human A2780 cells after 96 hrs by sulforhodamine B assay; type: functional, cell-based; conditions: A2780, 96 h
A549 = assay: Cytotoxicity against human A549 cells after 96 hrs by sulforhodamine B assay; type: functional, cell-based; conditions: A549, 96 h
HT-29 = assay: Cytotoxicity against human HT-29 cells after 96 hrs by sulforhodamine B assay; type: functional, cell-based; conditions: HT-29, 96 h
MCF7 = assay: Cytotoxicity against human MCF7 cells after 96 hrs by sulforhodamine B assay; type: functional, cell-based; conditions: MCF7, 96 h
[2] = Cytotoxicity against mouse NIH/3T3 cells after 96 hrs by sulforhodamine B assay; type: cell-based; conditions: NIH3T3, 96 h

Compound	EC50 [1] [µM]	EC50 (8505C) [µM]	EC50 (A2780) [µM]	EC50 (A549) [µM]	EC50 (HT-29) [µM]	EC50 (MCF7) [µM]	EC50 [2] [µM]
CCC[C@@H](O)CC/C=C/C=C/C#CC#C/C=C/CO [OENANTHOTOXIN]	17.1	10.5	3.8	10.9	> 30	20.6	10.1
CCCC(=O)CC/C=C/C=C/C#CC#C/C=C/COC(C)=O	9.1	15.6	4.7	56.4	> 30	21.6	14.2
CCC[C@@H](O)CC/C=C/C=C/C#CC#C/C=C/COC(C)=O	14.9	20.3	6.8	20.5	26.3	21.3	16.9
CCCC(=O)CC/C=C/C=C/C#CC#C/C=C/C(=O)O	> 30	19.3	> 30	> 30	> 30	> 30	> 30
CCCC(=O)CC/C=C/C=C/C#CC#C/C=C/CO	19.1	18	4.9	19.7	21.2	234	11.1
CCCC(=O)CC/C=C/C=C/C#CC#C/C=C/COC(=O)c1ccccc1	20.5	4.2	> 30	14.4	7.9	> 30	26.7
C=C(C)[C@@H]1CC[C@]2(C(=O)O)CC[C@]3(C)[C@H](CC[C@@H]4[C@@]5(C)CC[C@H](O)C(C)(C)[C@@H]5CC[C@]43C)[C@@H]12 [BETULINIC ACID]	11.9	6.7	11	14.8	13.1	14.9	10
CCCC(=O)CC/C=C/C=C/C#CC#C/C=C/C=O	> 30	7.1	7	> 30	22.2	5.9	13.2
CCC[C@@H](CC/C=C/C=C/C#CC#C/C=C/COC(C)=O)OC(C)=O	14.7	16.8	3.9	14.5	17.9	12.4	11.8
CCCC(=O)CC/C=C/C=C/C#CC#C/C=C/COC(=O)CCl	12.6	19.3	3.6	5.1	> 30	26.9	11.9
